Values of other authors, collected in publication PMC4183665 (2014).
Entries after “also recorded” stand apart in the source; their conditions may differ.

Experiments:
[1] = system: dipeptidyl peptidase-4 (DPP-4)

cleaved bond [1]: cleaves after Ala8
Substance: H-HAEGTFTSDVSSYLEGQAAKEFIAWLVKGRG-NH2
cleaved bond (neprilysin (NEP 24.11)): cleaves after Ser18; also recorded: cleaves after Tyr19; also recorded: cleaves after Glu27; also recorded: cleaves after Phe28
